# Measurements: ChEMBL document CHEMBL1201862, “PubChem BioAssay data set” (2004)
#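 48-hour exposure; five concentrations; linearly interpolated endpoints. At the GI50, growth is halved.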 Active and inactive are the calls of the source. Cut-off read from the data, not from the text of the source: active = GI50 up to about 1.1 µM and inactive = higher.
# Tests used:
# Test in all cases: inhibition of tumour cell growth, NCI panel, 48 h
# 786-0 = tested on: 786-0
# BT-549 = tested on: BT-549
# CCRF-CEM = tested on: CCRF-CEM
# COLO 205 = tested on: COLO 205
# DU-145 = tested on: DU-145
# EKVX = tested on: EKVX
# HCT-116 = tested on: HCT-116
# HOP-62 = tested on: HOP-62
# IGROV-1 = tested on: IGROV-1
# LOX IMVI = tested on: LOX IMVI
# MDA-MB-435 = tested on: MDA-MB-435
# NCI-H226 = tested on: NCI-H226
# OVCAR-5 = tested on: OVCAR-5
# OVCAR-8 = tested on: OVCAR-8
# SF-295 = tested on: SF-295
# SF-539 = tested on: SF-539
# SK-OV-3 = tested on: SK-OV-3
# SW-620 = tested on: SW-620
# U-251 = tested on: U-251
# UACC-62 = tested on: UACC-62
SMILES,GI50 (786-0),GI50 (BT-549),GI50 (CCRF-CEM),GI50 (COLO 205),GI50 (DU-145),GI50 (EKVX),GI50 (HCT-116),GI50 (HOP-62),GI50 (IGROV-1),GI50 (LOX IMVI),GI50 (MDA-MB-435),GI50 (NCI-H226),GI50 (OVCAR-5),GI50 (OVCAR-8),GI50 (SF-295),GI50 (SF-539),GI50 (SK-OV-3),GI50 (SW-620),GI50 (U-251),GI50 (UACC-62)
Cc1cc(N(CC(C)Br)CC(C)Br)ccc1/N=N/c1ccccc1C(=O)O (stereo not given),2.77 µM (inactive),11.3 µM (inactive),19.6 µM (inactive),5.47 µM (inactive),7.67 µM (inactive),9.12 µM (inactive),4.99 µM (inactive),4.71 µM (inactive),11 µM (inactive),7.59 µM (inactive),16.3 µM (inactive),4.52 µM (inactive),2.74 µM (inactive),13.2 µM (inactive),0.948 µM (active),1.45 µM (inactive),13.1 µM (inactive),20 µM (inactive),4.8 µM (inactive),1.52 µM (inactive)
Cc1ccn2c(=O)cc(CN3CCOCC3)nc2c1,> 100 µM (inactive),> 100 µM (inactive),> 100 µM (inactive),> 100 µM (inactive),> 100 µM (inactive),> 100 µM (inactive),> 100 µM (inactive),> 100 µM (inactive),> 100 µM (inactive),> 100 µM (inactive),> 100 µM (inactive),> 100 µM (inactive),> 100 µM (inactive),> 100 µM (inactive),> 100 µM (inactive),> 100 µM (inactive),> 100 µM (inactive),> 100 µM (inactive),> 100 µM (inactive),58.1 µM (inactive)
O=C(NNC(=S)Nc1ccccc1)c1ccccc1Nc1ccccc1C(=O)NNC(=S)Nc1ccccc1,13.8 µM (inactive),17.4 µM (inactive),76.4 µM (inactive),22.1 µM (inactive),23.3 µM (inactive),21.1 µM (inactive),17.7 µM (inactive),21.7 µM (inactive),8.24 µM (inactive),12.9 µM (inactive),20.9 µM (inactive),24.5 µM (inactive),16.8 µM (inactive),20 µM (inactive),20.9 µM (inactive),24.1 µM (inactive),30.1 µM (inactive),40.9 µM (inactive),19.5 µM (inactive),13.1 µM (inactive)
O=C(CNc1ccc(Cl)cc1Cl)Nn1c(-c2ccccc2)nc2ccccc2c1=O,16.8 µM (inactive),16.3 µM (inactive),2.9 µM (inactive),11.1 µM (inactive),14.5 µM (inactive),19.2 µM (inactive),16.7 µM (inactive),> 10 µM (inactive),15.2 µM (inactive),9.95 µM (inactive),14.9 µM (inactive),33.8 µM (inactive),23 µM (inactive),35 µM (inactive),14.9 µM (inactive),19.6 µM (inactive),28.2 µM (inactive),16.2 µM (inactive),> 10 µM (inactive),3.34 µM (inactive)
CCC1(CC)N=C(C(F)(F)F)c2cc(C(=O)C(F)(F)F)c3ccccc3c2N1,3.87 µM (inactive),5.87 µM (inactive),3.67 µM (inactive),14 µM (inactive),3.6 µM (inactive),10.2 µM (inactive),3.44 µM (inactive),5.19 µM (inactive),3.76 µM (inactive),3.64 µM (inactive),3.58 µM (inactive),6.5 µM (inactive),13.4 µM (inactive),3.66 µM (inactive),3.14 µM (inactive),17.9 µM (inactive),17.7 µM (inactive),4.78 µM (inactive),3.64 µM (inactive),3.36 µM (inactive)
CCn1c2ccccc2c2nnc(NCCCO)nc21,> 100 µM (inactive),> 100 µM (inactive),> 100 µM (inactive),> 100 µM (inactive),> 100 µM (inactive),28 µM (inactive),> 100 µM (inactive),> 100 µM (inactive),> 100 µM (inactive),> 100 µM (inactive),> 100 µM (inactive),> 100 µM (inactive),> 100 µM (inactive),> 100 µM (inactive),> 100 µM (inactive),> 100 µM (inactive),> 100 µM (inactive),> 100 µM (inactive),> 100 µM (inactive),> 100 µM (inactive)
CC(=O)NC1C(O)C(O)C(CO)OC1n1ncc(=O)[nH]c1=O (stereo not given),> 100 µM (inactive),> 100 µM (inactive),> 100 µM (inactive),> 100 µM (inactive),> 100 µM (inactive),> 100 µM (inactive),> 100 µM (inactive),> 100 µM (inactive),> 100 µM (inactive),> 100 µM (inactive),> 100 µM (inactive),> 100 µM (inactive),> 100 µM (inactive),> 100 µM (inactive),> 100 µM (inactive),> 100 µM (inactive),> 100 µM (inactive),> 100 µM (inactive),> 100 µM (inactive),> 100 µM (inactive)
O=C1C(SCCO)=C(SCCO)C(=O)c2ccccc21,2.04 µM (inactive),1.43 µM (inactive),0.916 µM (active),1.77 µM (inactive),2.05 µM (inactive),1.6 µM (inactive),1.86 µM (inactive),1.85 µM (inactive),0.467 µM (active),0.222 µM (active),0.186 µM (active),1.71 µM (inactive),1.16 µM (inactive),0.579 µM (active),1.48 µM (inactive),0.745 µM (active),1.66 µM (inactive),0.695 µM (active),0.711 µM (active),1.44 µM (inactive)
COc1ccc(C(=O)c2cc(OC)c(OC)c(OC)c2)cc1,0.169 µM (active),0.923 µM (active),0.0879 µM (active),0.0706 µM (active),0.205 µM (active),0.484 µM (active),0.0703 µM (active),0.7 µM (active),0.219 µM (active),0.147 µM (active),0.0197 µM (active),1.11 µM (active),5.98 µM (inactive),0.382 µM (active),0.0399 µM (active),0.152 µM (active),1.14 µM (inactive),0.0556 µM (active),0.206 µM (active),0.0501 µM (active)
O=C1C=Cc2c(I)sc(I)c21,10.3 µM (inactive),17.6 µM (inactive),2.88 µM (inactive),19 µM (inactive),30 µM (inactive),26.1 µM (inactive),15.7 µM (inactive),38.6 µM (inactive),15.9 µM (inactive),12.1 µM (inactive),19.4 µM (inactive),31.3 µM (inactive),25.1 µM (inactive),18.9 µM (inactive),46.8 µM (inactive),25.6 µM (inactive),89.7 µM (inactive),13.4 µM (inactive),17 µM (inactive),28.8 µM (inactive)
N#C/C(N)=C(C#N)/N=C/Nc1ccccc1N,> 100 µM (inactive),> 100 µM (inactive),> 100 µM (inactive),> 100 µM (inactive),> 100 µM (inactive),> 100 µM (inactive),> 100 µM (inactive),> 100 µM (inactive),> 100 µM (inactive),> 100 µM (inactive),> 100 µM (inactive),> 100 µM (inactive),> 100 µM (inactive),> 100 µM (inactive),> 100 µM (inactive),> 100 µM (inactive),> 100 µM (inactive),> 100 µM (inactive),> 100 µM (inactive),> 100 µM (inactive)
CC1Cc2cc(O)ccc2C2[C@@H]1C1CC[C@H](O)[C@@]1(C)C[C@@H]2O[N+](=O)[O-] (stereo not given in full),8.26 µM (inactive),10.9 µM (inactive),5.83 µM (inactive),22.3 µM (inactive),7.45 µM (inactive),21.4 µM (inactive),5.18 µM (inactive),8.83 µM (inactive),25.2 µM (inactive),9.2 µM (inactive),2.52 µM (inactive),32.1 µM (inactive),33.4 µM (inactive),16.8 µM (inactive),7.29 µM (inactive),3.79 µM (inactive),19.6 µM (inactive),6.76 µM (inactive),3.99 µM (inactive),5.46 µM (inactive)
COC(=O)C1SC(N(C)c2ccccc2)=NC12c1ccccc1Nc1ccccc12 (stereo not given),26.1 µM (inactive),15.9 µM (inactive),6.71 µM (inactive),14.5 µM (inactive),25.7 µM (inactive),22.8 µM (inactive),23.3 µM (inactive),33.8 µM (inactive),14.2 µM (inactive),19.1 µM (inactive),17.6 µM (inactive),20.7 µM (inactive),25.3 µM (inactive),8.89 µM (inactive),17.2 µM (inactive),18.4 µM (inactive),39.8 µM (inactive),27.9 µM (inactive),27.5 µM (inactive),13.6 µM (inactive)
CC(C)=CCC/C(C)=C/CC/C(C)=C/CC/C(C)=C/C=C/C=C(\C)CC/C=C(\C)CC/C=C(\C)CCC=C(C)C,22.2 µM (inactive),> 100 µM (inactive),24.6 µM (inactive),> 100 µM (inactive),> 56.9 µM (inactive),32.3 µM (inactive),> 92.5 µM (inactive),72.6 µM (inactive),17.5 µM (inactive),21.2 µM (inactive),> 76.6 µM (inactive),> 100 µM (inactive),> 100 µM (inactive),> 63 µM (inactive),> 100 µM (inactive),> 100 µM (inactive),> 100 µM (inactive),> 100 µM (inactive),63.7 µM (inactive),> 100 µM (inactive)
